Measured values from patent US20050164234A1, “Methods of using mammalian RNase H and compositions thereof” (priority 1997, published 2005).
Strand notation (5' to 3'): a small letter for the sugar, then the base; units joined by * are phosphorothioate-linked, units joined directly phosphodiester-linked; [ ] holds rarer units or linkages, { } end groups; capitals alone tell only the bases. e = 2'-O-(2-methoxyethyl) (MOE); [5mC] = 5-methylcytosine; d = 2'-deoxy (DNA)

Tests used:
Assay type in all cases: cell-based
human RNase H1 = assay: Screen of antisense compounds (gapped oligonucleotides, siRNA) in cells against human RNase H1; set-up: concentration or dose not given beside the values; conditions: percent inhibition of RNase H enzyme levels; target H1
Description: (§1) Oligonucleotides were identified by screening in cells (Crooke, S. T., 2003, in Burger's Medicinal Chemistry, 6th ed., pp 115-166; Vickers et al., 2003, J. Biol. Chem. 278, 7108-7118).
(§2) For this experiment oligoribonucleotides were purchased from Dharmacon Research, Inc. (Boulder Colo.). siRNA duplexes were formed in the solution containing 20 μM each oligoribonucleotide (sense strand shown and antisense strand complement—generally with a one base overhang at each end), 100 mM potassium acetate, 30 mM HEPES-KOH pH 7.4, 2 mM magnesium acetates. Reactions were heated for 1 minute at 90° C. and incubated for 1 hour at 37° C. The control gapped antisense oligonucleotide, is ISIS 29848, […] (SEQ ID NO: 104), where N is a mixture of A, G, C and T. Bold residues are 2′-MOE residues. The siRNA controls are either the single strand sense RNA strand or other RNA duplexes that are not complementary to the target. For transfection of cells, cells were incubated with a mixture of 3 μg/ml lipofectin (Invitrogen, Carlsbad Calif.) per 1-200 nM oligonucleotide or siRNA in OptiMEM medium (Invitrogen). After 4 hours the transfection mixture was aspirated from the cells and replaced with fresh medium containing 10% fetal bovine serum and the cells were incubated at 37° C. in 5% CO2 until harvest or second transfection.

human RNase H2 [1] = assay: Antisense inhibition of human RNase H2 expression, Northern blot; set-up: % of control / % inhibition: concentration or dose not given beside the values; conditions: for % inhibition / % of control: RNase H2 expression, Northern blot; for inhibition of human RNase H2 expression: summary of Table 3; for reduction of expression: dose response, A549 cells
Description: Total RNA was isolated from different human cell lines (ATCC, Rockville, Md.) using the guanidine isothiocyanate method (21). Ten μg of total RNA was separated on a 1.2% agarose/formaldehyde gel and transferred to Hybond-N+ (Amersham, Arlington Heights, Ill.) followed by fixing using UV crosslinker (Strategene, La Jolla, Calif.). The premade multiple tissue Northern Blot membranes were also purchased from Clontech (Palo Alto, Calif.). To detect RNase H2 mRNA, hybridization was performed by using ^32P-labeled human RNase H II cDNA in Quik-Hyb buffer (Strategene, La Jolla, Calif.) at 68 EC for 2 hours. After hybridization, membranes were washed in a final stringency of 0.1×SSC/0.1% SDS at 60 EC for 30 minutes and subjected to auto-radiography.
A series of antisense oligonucleotides were targeted to the human RNase H2 polynucleotide sequence (SEQ ID NO: 11). These compounds were all 2′-O-methoxyethyl “gapmers” with an 8-nucleotide deoxy gap and a phosphorothioate backbone. Cytosine residues are 5-methyl cytosines. The 2′-O-methoxyethyl (2′MOE) nucleotides are shown in bold.
The oligonucleotides shown in Table 2 were tested by Northern blot analysis for their ability to inhibit expression of human RNase H2. Results are expressed in Table 3.

human RNase H2 [2] = assay: Screen of antisense compounds (gapped oligonucleotides, siRNA) in cells against human RNase H2; set-up: concentration or dose not given beside the values; conditions: percent inhibition of RNase H enzyme levels; target H2
Description: as §1, §2

Sequence | % Inhib (human RNase H1) | % inhibition (human RNase H2 [1]) | % of control (human RNase H2 [1]) | inhibition of human RNase H2 expression (human RNase H2 [1]) | % Inhib (human RNase H2 [2]) | reduction of expression (human RNase H2 [1]; 200 nM) | reduction of expression (human RNase H2 [1]; lowest dose tested 50 nM)
AAGCCGAGCGUGGAGCCGGCG [Si-H1B] | 77.2% | – | – | – | – | – | –
ACTCCAGGCCGCGTTCCAGG (antisense eA*e[5mC]*eT*e[5mC]*e[5mC]*eA*dG*dG*d[5mC]*d[5mC]*dG*d[5mC]*dG*dT*eT*e[5mC]*e[5mC]*eA*eG*eG) [ISIS 21959, 2′-O-methoxyethyl gapmer, 8-nucleotide deoxy gap, phosphorothioate backbone, targeted to human RNase H2] | – | 82% | 18% | at least 50% | 81.2% | – | –
AGCTGAACCGGACAAACTGG (antisense eA*eG*e[5mC]*eT*eG*eA*dA*d[5mC]*d[5mC]*dG*dG*dA*d[5mC]*dA*eA*eA*e[5mC]*eT*eG*eG) [ISIS 21957, 2′-O-methoxyethyl gapmer, 8-nucleotide deoxy gap, phosphorothioate backbone, targeted to human RNase H2] | – | 68% | 32% | at least 50% | 68.1% | – | –
CAAAAGGAAGTAGCTGGACC (antisense e[5mC]*eA*eA*eA*eA*eG*dG*dA*dA*dG*dT*dA*dG*d[5mC]*eT*eG*eG*eA*e[5mC]*e[5mC]) [ISIS 21962, 2′-O-methoxyethyl gapmer, 8-nucleotide deoxy gap, phosphorothioate backbone, targeted to human RNase H2] | – | 37% | 63% | – | 36.0% | – | –
CACAGGCGAACTCAGGCGAC (all C 5-methyl, all phosphorothioate, sugars by position not given here; further chemistry not fully specified) [ISIS 21947, 2′-O-methoxyethyl gapmer, 8-nucleotide deoxy gap, phosphorothioate backbone, targeted to human RNase H2] | – | 63% | 37% | at least 50% | – | – | –
CAGTTTCTCCACGAATTGCC (antisense e[5mC]*eA*eG*eT*eT*eT*d[5mC]*dT*d[5mC]*d[5mC]*dA*d[5mC]*dG*dA*eA*eT*eT*eG*e[5mC]*e[5mC]) [ISIS 21955, 2′-O-methoxyethyl gapmer, 8-nucleotide deoxy gap, phosphorothioate backbone, targeted to human RNase H2] | – | 33% | 67% | – | 33.3% | – | –
CCACCTTGGCACAGATGCTG (all C 5-methyl, all phosphorothioate, sugars by position not given here; further chemistry not fully specified) [ISIS 21954, 2′-O-methoxyethyl gapmer, 8-nucleotide deoxy gap, phosphorothioate backbone, targeted to human RNase H2] | – | 77% | 23% | at least 50% | – | – | –
CCAGUUUGUCCGGUUCAGCUG [Si 21957] | – | – | – | – | 42.4% | – | –
CCCAGCCGACAAAGTCCGTG (all C 5-methyl, all phosphorothioate, sugars by position not given here; further chemistry not fully specified) [ISIS 21950, 2′-O-methoxyethyl gapmer, 8-nucleotide deoxy gap, phosphorothioate backbone, targeted to human RNase H2] | – | 68% | 32% | at least 50% | – | – | –
CCCGCTCGCTCTCCAATAGG (all C 5-methyl, all phosphorothioate, sugars by position not given here; further chemistry not fully specified) [ISIS 21949, 2′-O-methoxyethyl gapmer, 8-nucleotide deoxy gap, phosphorothioate backbone, targeted to human RNase H2] | – | 82% | 18% | at least 50% | – | – | –
CCTACGTGTGGTTCTCCTTA (antisense e[5mC]*e[5mC]*eT*eA*e[5mC]*eG*dT*dG*dT*dG*dG*dT*dT*d[5mC]*eT*e[5mC]*e[5mC]*eT*eT*eA) [ISIS 21960, 2′-O-methoxyethyl gapmer, 8-nucleotide deoxy gap, phosphorothioate backbone, targeted to human RNase H2] | – | 92% | 8% | at least 50% | 91.7% | > 80% | 60%
CCTCTTTCTCCAGGATGGTC (antisense e[5mC]*e[5mC]*eT*e[5mC]*eT*eT*dT*d[5mC]*dT*d[5mC]*d[5mC]*dA*dG*dG*eA*eT*eG*eG*eT*e[5mC]) [ISIS 21958, 2′-O-methoxyethyl gapmer, 8-nucleotide deoxy gap, phosphorothioate backbone, targeted to human RNase H2] | – | 38% | 62% | – | 38.0% | – | –
CCUGGAACGCGGCCUGGAGUC [Si 21959] | – | – | – | – | 53.8% | – | –
CGCCTCAGCCGCCACCACCA (all C 5-methyl, all phosphorothioate, sugars by position not given here; further chemistry not fully specified) [ISIS 21946, 2′-O-methoxyethyl gapmer, 8-nucleotide deoxy gap, phosphorothioate backbone, targeted to human RNase H2] | – | 50% | 50% | at least 50% | – | – | –
CGCGCCTGGTATGTCTCTGG (all C 5-methyl, all phosphorothioate, sugars by position not given here; further chemistry not fully specified) [ISIS 21952, 2′-O-methoxyethyl gapmer, 8-nucleotide deoxy gap, phosphorothioate backbone, targeted to human RNase H2] | – | 89% | 11% | at least 50% | – | approximately 70% | 60%
CGGTGTCCACGAATACCTGG (all C 5-methyl, all phosphorothioate, sugars by position not given here; further chemistry not fully specified) [ISIS 21951, 2′-O-methoxyethyl gapmer, 8-nucleotide deoxy gap, phosphorothioate backbone, targeted to human RNase H2] | – | 74% | 26% | at least 50% | – | – | –
GAAGCAAGGUGGGAGUGUGCU [Si 21961] | – | – | – | – | 15.2% | – | –
GACCAUCCUGGAGAAAGAGGC [Si 21958] | – | – | – | – | 45.8% | – | –
GCACACTCCCACCTTGCTTC (chemistry not fully specified) [ISIS 21961, 2′-O-methoxyethyl gapmer, 8-nucleotide deoxy gap, phosphorothioate backbone, targeted to human RNase H2] | – | 7% | 93% | – | 6.1% | – | –
GGACAATAACAGATGGCGTA (eG*eG*eA*e[5mC]*eA*eA*dT*dA*dA*d[5mC]*dA*dG*dA*dT*eG*eG*e[5mC]*eG*eT*eA) [ISIS 21948] | – | 62% | 38% | at least 50% | – | – | –
GGCAAUUCGUGGAGAAACUGC [Si 21955] | – | – | – | – | 19.2% | – | –
GGTAGAGGGCATCTGCTTTG (eG*eG*eT*eA*eG*eA*dG*dG*dG*d[5mC]*dA*dT*d[5mC]*dT*eG*e[5mC]*eT*eT*eT*eG) [ISIS 21953] | – | 59% | 41% | at least 50% | – | – | –
GGUCCAGCUACUUCCUUUUGG [Si 21962] | – | – | – | – | 0% | – | –
TTTTGTCTTGGGATCATTGG (eT*eT*eT*eT*eG*eT*d[5mC]*dT*dT*dG*dG*dG*dA*dT*e[5mC]*eA*eT*eT*eG*eG) [ISIS 21956] | – | 63% | 37% | at least 50% | 63.1% | – | –
UAAGGAGAACCACACGUAGGG [Si 21960] | – | – | – | – | 9.9% | – | –
